Source: patent US9096539B2, “Substituted 4,5-dihydro-2H-benzo[e]indazole-9-carboxylates for the treatment of diabetes and related disorders” (Council of Scientific & Industrial Research, priority 2012, dated 2015)
Where two headings read alike, the source gives them in different places.

How the values were obtained:
[1] = test system: sucrose challenged STZ induced diabetic rats; assay: Antihyperglycaemic activity in sucrose challenged streptozotocin (STZ)-induced diabetic rats (STZ-S); format: in vivo, rat; conditions: compounds 100 mg/kg, Januvia 50 mg/kg; for % Antihyperglycaemic activity STZ-S 0-5 h AUC / % Antihyperglycaemic activity STZ-S 0-24 h AUC: oral; for Blood Glucose Profile 0 min (Pre treatment): 0 min pre treatment (fasting baseline)
Method: The test compounds and standard antidiabetic drug Januvia were prepared in 1.0% freshly prepared Gum acacia. Assessment of Test Compounds for Antihyperglycaemic Activity in Sucrose Challenged Streptozotocin STZ-Induced Diabetic Rats— Induction of Diabetes in Rats: Overnight starved male albino rats of Sprague Dawley strain were used and Diabetes was induced in the animals by single intraperitoneal injection of Streptozotocin at 60 mg/kg body weight dose prepared in 0.1M citrate buffer (pH 4.5). Fasting blood glucose level was measured by using a Glucometer (ACCU-CHEK II; […] Grouping and Treatment: […] All the diabetic animals were again divided into groups with five animals in each group. Animals of one group were regarded as the control group (orally administered 1% gum acacia) and the others were treated as the experimental groups. […] Animals of the control group were given an equal amount of 1.0% gum acacia. The standard antidiabetic drug Januvia was given to the animals at an oral dose of 50 mg/kg body weight. […] Food but not water was withheld from the cages during the course of experimentation. Percent hyperglycemic activity was determined by comparing the AUC (area under curve) of experimental groups with that of the vehicle treated control group. Quantitative glucose tolerance of each animal was calculated by the area under the curve (AUC) method using Prism Software. The area under the curve of the control group and the experimental group was compared to determine the percent antihyperglycaemic activity. Statistical comparisons were performed by one-way analysis of variance (ANOVA), followed by Dunnett's multiple range test (DMRT). […] Results were expressed as mean±SEM.

[2] = test system: low dosed STZ induced diabetic rats; assay: Antihyperglycaemic activity in low dosed streptozotocin induced diabetic rats (STZ); format: in vivo, rat; conditions: for Blood Glucose Profile 0 min (Pre treatment): 0 min pre treatment (fasting baseline); for Blood Glucose Profile 0 min (Pre treatment) / Blood Glucose Profile 30 min (Post treatment) / Blood Glucose Profile 60 min (Post treatment) / Blood Glucose Profile 90 min (Post treatment) / Blood Glucose Profile 120 min (Post treatment) / Blood Glucose Profile 180 min (Post treatment) / Blood Glucose Profile 240 min (Post treatment) / Blood Glucose Profile 300 min (Post treatment) / Blood Glucose Profile 1440 min (Post treatment) / % Antihyperglycaemic activity STZ 0-5 h AUC / % Antihyperglycaemic activity STZ 0-24 h AUC: low dosed STZ diabetic rats, compounds 100 mg/kg, Januvia 50 mg/kg; for % Antihyperglycaemic activity STZ 0-5 h AUC / % Antihyperglycaemic activity STZ 0-24 h AUC: oral; for lowering in the hyperglycaemia of the diabetic rats: low dosed streptozotocin induced diabetic rats, 100 mg/kg, result in words
Method: The test compounds and standard antidiabetic drug Januvia were prepared in 1.0% freshly prepared Gum acacia.
Assessment of Test Compounds for Antihyperglycaemic Activity in Low Dosed Streptozotocin Induced Diabetic Rats—
Induction of Diabetes in Rats:
Overnight starved male albino rats of Sprague Dawley strain were used and Diabetes was induced in the animals by single intraperitoneal injection of Streptozotocin at 60 mg/kg body weight dose prepared in 0.1M citrate buffer (pH 4.5). Fasting blood glucose level was measured by using a Glucometer (ACCU-CHEK II; Roche Diagnostics, USA) after 48 hours and animals showing blood glucose level above 300 mg/di were considered as diabetic.
The diabetic animals were divided into four groups (Group 1 to 4) each consisting 6 rats. Group 1 received 0.4 ml vehicle (1% gum acacia). Group 2 received the test compound 5 at an oral dose of 100 mg/kg/body weight. Group 3 was given compound 6 at an oral dose of 100 mg/kg/body weight. The standard antidiabetic drug Januvia was given to the animals of Group 4 at an oral dose of 50 mg/kg body weight. […] Food but not water was withheld from the cages during the course of experimentation. Percent hyperglycemic activity was determined by comparing the AUC (area under curve) of experimental groups with that of the vehicle treated control group.
Quantitative glucose tolerance of each animal was calculated by the area under the curve (AUC) method using Prism Software. The area under the curve of the control group and the experimental group was compared to determine the percent antihyperglycaemic activity. Statistical comparisons were performed by one-way analysis of variance (ANOVA), followed by Dunnett's multiple range test (DMRT). The results were considered statistically significant if the ‘p’ values were 0.05 or less. Results were expressed as mean±SEM.

[3] = molecular target: T1, human recombinant PTP1B enzyme (Homo sapiens, UniProt P18031); assay: Protein tyrosine phosphatase-1B assay (colorimetric kit BML-AK 822); format: biochemical; conditions: for inhibition at 0.3 µM: read-out: % Inhibition at different Inhibitor concentration 0.3 μM; for inhibition at 1 µM: read-out: % Inhibition at different Inhibitor concentration 1 μM; for inhibition at 3 µM: read-out: % Inhibition at different Inhibitor concentration 3 μM; for inhibition at 5 µM: read-out: % Inhibition at different Inhibitor concentration 5 μM; for IC50: from % inhibition at 5 concentrations 0.3-10 μM
T1 construct: purchased Enzo Life Sciences, USA BML-AK 822
T1 sequence (P18031 1-322 limits assumed): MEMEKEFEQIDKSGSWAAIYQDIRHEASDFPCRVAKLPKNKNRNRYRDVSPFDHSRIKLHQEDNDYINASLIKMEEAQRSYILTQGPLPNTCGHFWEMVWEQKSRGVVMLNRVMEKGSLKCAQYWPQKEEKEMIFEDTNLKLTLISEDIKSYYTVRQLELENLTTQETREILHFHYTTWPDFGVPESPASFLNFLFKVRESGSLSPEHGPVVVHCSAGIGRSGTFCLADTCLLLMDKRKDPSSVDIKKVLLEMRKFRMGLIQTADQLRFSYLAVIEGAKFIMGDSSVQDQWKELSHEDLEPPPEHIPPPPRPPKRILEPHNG
Method: Assay was done according to the Kit manufacturers protocol, in brief the reaction was carried out in 96 well flat bottomed microtiter plate by the addition of assay buffer, solution of test compounds and diluted PTP1B enzyme. Enzyme reaction was initiated by addition of 50 μl of warmed 2× substrate then incubated the plate at 30° C. for 30 min. After incubation for 30 min. Reaction was terminated by addition of 25 μl of biomol red reagent and mixed thoroughly by repeated pipetting. […] Volumes and dilution of other component were accordingly as instructed in the manual provided in the kit. PTP1B phosphatase acting on the phosphopeptide substrate and release phosphate. The detection of free phosphate released is based on classic Malachite green assay. After adding biomol red to reaction wells after 30 minutes of incubation as described earlier the plate was incubated for another 20 min to develop the colour. Absorbance was recorded at 620 nm. on a microplate reader.

[4] = Table 5, evaluated at 10 μM concentration, read-out: % Inhibition (PTP-1B)
[5] = Table 6 dose response, 10 μM, read-out: % Inhibition at different Inhibitor concentration 10 μM

Compound	% Antihyperglycaemic activity STZ-S 0-5 h AUC [1] [%]	% Antihyperglycaemic activity STZ-S 0-24 h AUC [1] [%]	Blood Glucose Profile 0 min (Pre treatment) [1] [mg/dL]	Blood Glucose Profile 30 min (Post treatment) [1] [mg/dL]	Blood Glucose Profile 60 min (Post treatment) [1] [mg/dL]	Blood Glucose Profile 90 min (Post treatment) [1] [mg/dL]	Blood Glucose Profile 120 min (Post treatment) [1] [mg/dL]	Blood Glucose Profile 180 min (Post treatment) [1] [mg/dL]	Blood Glucose Profile 240 min (Post treatment) [1] [mg/dL]	Blood Glucose Profile 300 min (Post treatment) [1] [mg/dL]	Blood Glucose Profile 1440 min (Post treatment) [1] [mg/dL]	Blood Glucose Profile 0 min (Pre treatment) [2] [mg/dL]	Blood Glucose Profile 30 min (Post treatment) [2] [mg/dL]	Blood Glucose Profile 60 min (Post treatment) [2] [mg/dL]	Blood Glucose Profile 90 min (Post treatment) [2] [mg/dL]	Blood Glucose Profile 120 min (Post treatment) [2] [mg/dL]	Blood Glucose Profile 180 min (Post treatment) [2] [mg/dL]	Blood Glucose Profile 240 min (Post treatment) [2] [mg/dL]	Blood Glucose Profile 300 min (Post treatment) [2] [mg/dL]	Blood Glucose Profile 1440 min (Post treatment) [2] [mg/dL]	further results
COC(=O)c1c(SC)cc(-c2ccc(C)cc2)c2c1-c1cn(-c3ccccc3)nc1CC2 [compound 5, methyl 8-(methylthio)-2-phenyl-6-p-tolyl-4,5-dihydro-2H-benzo[e]indazole-9-carboxylate]	20.4	23.6	222.3 ± 9.39	515.6 ± 15.5	528.6 ± 14.4	506.5 ± 14.0	459.6 ± 11.2	402.1 ± 5.58	332.5 ± 15.6	284.3 ± 16.9	411.1 ± 13.6	346.6 ± 6.19	434.2 ± 12.4	481.2 ± 11.8	447.0 ± 8.16	434.8 ± 11.7	385.6 ± 5.8	353.6 ± 16.4	362.4 ± 17.6	483.0 ± 3.95	% Antihyperglycaemic activity STZ 0-5 h AUC [2]: 23.1%; % Antihyperglycaemic activity STZ 0-24 h AUC [2]: 18.2%; lowering in the hyperglycaemia of the diabetic rats [2]: significant lowering in the hyperglycaemia; inhibition at 10 µM [3, 4]: 83.8%; inhibition at 0.3 µM ([3]; Table 6 dose response): 3.89%; inhibition at 1 µM ([3]; Table 6 dose response): 13.2%; inhibition at 3 µM ([3]; Table 6 dose response): 24.1%; inhibition at 5 µM ([3]; Table 6 dose response): 36.7%; inhibition at 10 µM [3, 5]: 67.8%; IC50 [3]: 7.12 µM; melting point: 178 to 180 °C
COC(=O)c1c(SC)cc(-c2cccc3ccccc23)c2c1-c1cn(-c3ccccc3)nc1CC2 [compound 6, methyl 8-(methylthio)-6-(naphthalen-1-yl)-2-phenyl-4,5-dihydro-2H-benzo[e]indazole-9-carboxylate]	29.7	25.7	222.6 ± 6.55	442.1 ± 18.2	520.0 ± 10.3	464.0 ± 14.4	399.3 ± 14.0	334.0 ± 13.4	301.6 ± 18.8	277.0 ± 10.1	405.0 ± 17.6	344.0 ± 3.91	444.6 ± 16.6	492.0 ± 13.6	490.2 ± 11.2	474.8 ± 15.0	426.0 ± 16.0	385.8 ± 15.6	355 ± 14.3	442.4 ± 9.64	% Antihyperglycaemic activity STZ 0-5 h AUC [2]: 18.9%; % Antihyperglycaemic activity STZ 0-24 h AUC [2]: 20.1%; lowering in the hyperglycaemia of the diabetic rats [2]: significant lowering in the hyperglycaemia; inhibition at 10 µM [3, 4]: 76.9%; inhibition at 0.3 µM ([3]; Table 6 dose response): 0.5%; inhibition at 1 µM ([3]; Table 6 dose response): 11.2%; inhibition at 3 µM ([3]; Table 6 dose response): 16.2%; inhibition at 5 µM ([3]; Table 6 dose response): 28.8%; inhibition at 10 µM [3, 5]: 62.3%; IC50 [3]: 8.12 µM; melting point: 182 to 184 °C
